# In ChEMBL document CHEMBL5247683 (ACS Med Chem Lett, 2023):
# Legend:
# JAK1/TYK2 = JAK1/TYK2 (Homo sapiens, UniProt P23458+P29597); assay: Inhibition of JAK1/TYK2 in human M07E cells assessed as reduction of IFN alpha stimulated STAT phosphorylation preincubated for 30 mins followed by IFN alpha stimulation for 15 mins by flow cytometry method; format: cell-based
# JAK3/JAK1 [1] = biological target: T1, JAK3/JAK1 (Homo sapiens, UniProt P23458+P52333); format: tissue-based, Blood
# Description: Inhibition of JAK1/JAK3 in human blood assessed as reduction of IL-2 stimulated STAT phosphorylation preincubated for 30 mins followed by IL-2 stimulation for 15 mins by flow cytometry method
# [2] = biological target: Non-receptor tyrosine-protein kinase TYK2 (Homo sapiens, UniProt P29597); assay: Inhibition of GST-fused Tyk2 (888 to 1187 residues) (unknown origin) using FITC-AhxKKSRGDYMTMQIG-NH2 peptide as substrate incubated for 60 mins in presence of ATP by Janus kinase assay
# JAK3/JAK1 [3] = biological target: T1, JAK3/JAK1; assay: Inhibition of JAK1/JAK3 in human M07E cells assessed as reduction of IL-15 stimulated STAT phosphorylation preincubated for 30 mins followed by IL-15 stimulation for 15 mins by flow cytometry method; format: cell-based
# [4] = biological target: Tyrosine-protein kinase JAK1 (Homo sapiens, UniProt P23458); assay: Inhibition of GST-fused JAK1 (866 to 1154 residues) (unknown origin) using FITC-AhxKKSRGDYMTMQIG-NH2 peptide as substrate incubated for 60 mins in presence of ATP by Janus kinase assay
# [5] = biological target: Tyrosine-protein kinase JAK2 (Homo sapiens, UniProt O60674); assay: Inhibition of GST-fused JAK2 (808 to 1132 residues) (unknown origin) using Carboxyfluorescein-Ahx-GGEEEEYFELVKKKK peptide as substrate incubated for 60 mins in presence of ATP by Janus kinase assay
# [6] = biological target: T2, Tyrosine-protein kinase JAK3 (Homo sapiens, UniProt P52333); assay: Inhibition of GST-fused JAK3 (811 to 1124 residues) (unknown origin) using Carboxyfluorescein-Ahx-GGEEEEYFELVKKKK peptide as substrate incubated for 60 mins in presence of ATP by Janus kinase assay
# T2 sequence (P52333 whole entry): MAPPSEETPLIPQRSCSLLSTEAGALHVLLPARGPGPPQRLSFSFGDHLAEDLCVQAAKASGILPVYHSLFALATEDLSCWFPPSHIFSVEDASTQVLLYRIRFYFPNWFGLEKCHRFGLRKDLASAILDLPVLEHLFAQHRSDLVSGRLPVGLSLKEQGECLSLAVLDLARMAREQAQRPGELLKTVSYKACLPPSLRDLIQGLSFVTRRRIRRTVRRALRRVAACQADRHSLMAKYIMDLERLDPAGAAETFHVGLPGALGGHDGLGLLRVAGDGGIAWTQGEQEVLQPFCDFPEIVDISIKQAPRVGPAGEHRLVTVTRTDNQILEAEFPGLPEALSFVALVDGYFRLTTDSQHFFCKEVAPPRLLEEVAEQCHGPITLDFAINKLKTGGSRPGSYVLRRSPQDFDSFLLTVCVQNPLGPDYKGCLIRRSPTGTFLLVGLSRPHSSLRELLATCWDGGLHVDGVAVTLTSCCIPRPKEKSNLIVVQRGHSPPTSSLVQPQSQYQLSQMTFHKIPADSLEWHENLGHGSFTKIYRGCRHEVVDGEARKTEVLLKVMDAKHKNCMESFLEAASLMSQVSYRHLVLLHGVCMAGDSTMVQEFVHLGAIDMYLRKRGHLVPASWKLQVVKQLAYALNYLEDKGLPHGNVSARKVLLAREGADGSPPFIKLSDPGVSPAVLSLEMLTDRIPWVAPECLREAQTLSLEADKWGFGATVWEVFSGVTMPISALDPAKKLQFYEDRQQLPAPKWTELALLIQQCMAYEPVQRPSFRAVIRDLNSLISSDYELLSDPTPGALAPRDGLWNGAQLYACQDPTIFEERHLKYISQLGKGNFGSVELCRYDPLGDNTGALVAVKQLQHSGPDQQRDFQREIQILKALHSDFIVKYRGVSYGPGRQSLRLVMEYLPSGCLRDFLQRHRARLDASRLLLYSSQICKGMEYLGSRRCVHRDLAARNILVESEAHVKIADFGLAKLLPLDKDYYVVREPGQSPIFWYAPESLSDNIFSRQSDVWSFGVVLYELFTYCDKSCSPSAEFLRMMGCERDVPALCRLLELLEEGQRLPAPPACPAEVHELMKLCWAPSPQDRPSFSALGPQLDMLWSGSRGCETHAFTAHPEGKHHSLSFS
# [7] = Dissociation constant, pKa of compound; format: physicochemical
# [8] = biological target: Vascular endothelial growth factor receptor 2 (Homo sapiens, UniProt P35968); assay: Inhibition of KDR (unknown origin)
# [9] = biological target: Tyrosine-protein kinase Lck (Homo sapiens, UniProt P06239); assay: Inhibition of LCK (unknown origin)
# [10] = biological target: Glycogen synthase kinase-3 beta (Homo sapiens, UniProt P49841); assay: Inhibition of GSK3B (unknown origin)
# Aurora kinase A = biological target: T3, Aurora kinase A (Homo sapiens, UniProt O14965); assay: Inhibition of AuroraA (unknown origin)
# T3 sequence (O14965 whole entry): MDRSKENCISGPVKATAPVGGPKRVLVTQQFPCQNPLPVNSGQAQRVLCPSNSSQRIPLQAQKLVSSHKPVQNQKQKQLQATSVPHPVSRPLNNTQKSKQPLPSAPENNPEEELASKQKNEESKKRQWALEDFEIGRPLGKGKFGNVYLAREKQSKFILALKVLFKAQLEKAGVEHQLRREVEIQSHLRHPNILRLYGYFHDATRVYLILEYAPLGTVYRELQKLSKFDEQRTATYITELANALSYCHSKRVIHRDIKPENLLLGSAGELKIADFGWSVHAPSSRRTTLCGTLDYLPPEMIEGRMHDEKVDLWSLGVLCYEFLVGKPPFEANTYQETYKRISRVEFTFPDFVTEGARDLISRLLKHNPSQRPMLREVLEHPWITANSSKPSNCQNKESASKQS
# [11] = biological target: T4, Serine/threonine-protein kinase 4 (Homo sapiens, UniProt Q13043); assay: Inhibition of STK4 (unknown origin)
# T4 sequence (Q13043 whole entry): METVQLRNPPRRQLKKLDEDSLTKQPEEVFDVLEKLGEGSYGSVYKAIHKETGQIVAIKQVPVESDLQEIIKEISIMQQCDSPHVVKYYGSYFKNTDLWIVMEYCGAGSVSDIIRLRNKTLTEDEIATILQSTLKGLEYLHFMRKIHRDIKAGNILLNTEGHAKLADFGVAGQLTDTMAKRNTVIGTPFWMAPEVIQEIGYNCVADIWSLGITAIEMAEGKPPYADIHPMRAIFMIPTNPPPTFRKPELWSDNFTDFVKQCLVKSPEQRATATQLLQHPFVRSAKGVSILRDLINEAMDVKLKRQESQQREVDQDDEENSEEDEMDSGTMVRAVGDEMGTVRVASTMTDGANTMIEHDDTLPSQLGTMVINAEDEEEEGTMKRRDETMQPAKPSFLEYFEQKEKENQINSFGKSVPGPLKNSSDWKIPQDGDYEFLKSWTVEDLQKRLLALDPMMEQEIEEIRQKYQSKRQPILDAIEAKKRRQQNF
# [12] = Inhibition of p70S6K (unknown origin); design: species or system Homo sapiens
# [13] = biological target: T5, Interleukin-1 receptor-associated kinase 4 (Homo sapiens, UniProt Q9NWZ3); assay: Inhibition of IRAK4 (unknown origin)
# T5 sequence (Q9NWZ3 whole entry): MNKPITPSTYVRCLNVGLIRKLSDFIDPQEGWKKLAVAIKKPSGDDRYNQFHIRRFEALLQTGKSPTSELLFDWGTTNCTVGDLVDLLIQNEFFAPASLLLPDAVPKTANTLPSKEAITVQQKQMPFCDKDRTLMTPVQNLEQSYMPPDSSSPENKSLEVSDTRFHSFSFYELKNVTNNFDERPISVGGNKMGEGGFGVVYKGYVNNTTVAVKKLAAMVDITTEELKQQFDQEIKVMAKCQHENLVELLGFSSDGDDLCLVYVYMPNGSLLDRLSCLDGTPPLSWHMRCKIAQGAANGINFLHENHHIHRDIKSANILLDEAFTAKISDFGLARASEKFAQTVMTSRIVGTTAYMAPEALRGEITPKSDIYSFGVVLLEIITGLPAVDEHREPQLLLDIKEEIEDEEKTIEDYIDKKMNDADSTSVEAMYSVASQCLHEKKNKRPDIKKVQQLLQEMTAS
# [14] = biological target: T6, Receptor-type tyrosine-protein kinase FLT3 (Homo sapiens, UniProt P36888); assay: Inhibition of FLT3 (unknown origin)
# T6 sequence (P36888 whole entry): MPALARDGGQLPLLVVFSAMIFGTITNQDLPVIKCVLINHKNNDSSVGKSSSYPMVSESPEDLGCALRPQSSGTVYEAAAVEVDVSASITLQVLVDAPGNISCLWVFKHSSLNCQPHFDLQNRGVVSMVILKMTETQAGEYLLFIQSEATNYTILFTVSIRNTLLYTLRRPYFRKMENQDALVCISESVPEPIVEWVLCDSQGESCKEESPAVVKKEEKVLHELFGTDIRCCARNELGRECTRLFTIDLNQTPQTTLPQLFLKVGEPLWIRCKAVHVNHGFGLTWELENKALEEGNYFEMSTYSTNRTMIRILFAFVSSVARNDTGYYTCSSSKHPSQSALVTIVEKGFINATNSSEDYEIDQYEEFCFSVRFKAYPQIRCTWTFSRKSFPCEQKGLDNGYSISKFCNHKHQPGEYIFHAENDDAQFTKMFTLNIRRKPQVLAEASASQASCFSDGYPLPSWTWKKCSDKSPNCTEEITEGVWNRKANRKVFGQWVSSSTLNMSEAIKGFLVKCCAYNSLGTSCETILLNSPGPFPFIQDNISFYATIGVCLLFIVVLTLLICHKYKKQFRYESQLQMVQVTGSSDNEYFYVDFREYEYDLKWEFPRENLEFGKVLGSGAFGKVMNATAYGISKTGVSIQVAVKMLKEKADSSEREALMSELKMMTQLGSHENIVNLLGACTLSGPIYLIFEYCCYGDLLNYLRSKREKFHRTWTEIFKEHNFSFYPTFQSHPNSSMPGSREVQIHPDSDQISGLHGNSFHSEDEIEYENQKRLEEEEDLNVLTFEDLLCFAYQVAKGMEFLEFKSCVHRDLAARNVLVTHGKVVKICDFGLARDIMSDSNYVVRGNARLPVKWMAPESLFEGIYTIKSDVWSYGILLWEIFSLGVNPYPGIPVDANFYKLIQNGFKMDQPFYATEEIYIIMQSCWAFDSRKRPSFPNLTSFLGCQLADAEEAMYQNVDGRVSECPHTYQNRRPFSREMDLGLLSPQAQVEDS
# in vitro = details: human, liver microsomes
# Description: Intrinsic clearance in human liver microsomes
# Tyrosine-protein kinase JAK2, sequence (O60674 whole entry, the tested form may be a part): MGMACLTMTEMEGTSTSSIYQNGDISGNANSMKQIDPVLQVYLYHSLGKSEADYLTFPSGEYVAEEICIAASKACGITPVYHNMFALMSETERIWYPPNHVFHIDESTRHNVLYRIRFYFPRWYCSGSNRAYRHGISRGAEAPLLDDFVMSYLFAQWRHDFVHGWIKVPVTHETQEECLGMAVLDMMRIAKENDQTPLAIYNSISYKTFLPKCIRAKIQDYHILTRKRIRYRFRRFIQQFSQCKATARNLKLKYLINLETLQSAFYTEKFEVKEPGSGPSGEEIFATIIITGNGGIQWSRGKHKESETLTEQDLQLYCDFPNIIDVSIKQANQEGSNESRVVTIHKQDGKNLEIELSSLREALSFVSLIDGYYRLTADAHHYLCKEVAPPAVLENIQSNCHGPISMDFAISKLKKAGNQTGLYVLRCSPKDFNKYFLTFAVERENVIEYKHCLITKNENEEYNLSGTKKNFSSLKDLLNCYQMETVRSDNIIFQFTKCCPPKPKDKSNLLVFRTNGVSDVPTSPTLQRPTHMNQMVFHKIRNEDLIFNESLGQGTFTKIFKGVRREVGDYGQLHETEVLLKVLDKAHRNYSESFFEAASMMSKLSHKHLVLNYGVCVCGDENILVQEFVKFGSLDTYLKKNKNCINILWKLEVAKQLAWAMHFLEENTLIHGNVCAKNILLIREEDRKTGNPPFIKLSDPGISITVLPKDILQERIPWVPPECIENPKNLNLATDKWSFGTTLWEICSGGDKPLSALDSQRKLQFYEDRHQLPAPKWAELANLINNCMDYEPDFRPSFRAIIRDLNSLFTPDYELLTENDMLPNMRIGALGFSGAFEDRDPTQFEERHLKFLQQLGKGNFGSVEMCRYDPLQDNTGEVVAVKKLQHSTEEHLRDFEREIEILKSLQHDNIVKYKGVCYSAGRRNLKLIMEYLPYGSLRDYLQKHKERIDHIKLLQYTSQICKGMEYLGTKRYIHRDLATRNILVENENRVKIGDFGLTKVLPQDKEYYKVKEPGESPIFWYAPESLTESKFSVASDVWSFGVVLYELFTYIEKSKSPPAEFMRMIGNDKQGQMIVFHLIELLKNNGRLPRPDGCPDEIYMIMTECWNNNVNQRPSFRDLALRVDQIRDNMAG
# Tyrosine-protein kinase JAK1, sequence (P23458 whole entry, the tested form may be a part): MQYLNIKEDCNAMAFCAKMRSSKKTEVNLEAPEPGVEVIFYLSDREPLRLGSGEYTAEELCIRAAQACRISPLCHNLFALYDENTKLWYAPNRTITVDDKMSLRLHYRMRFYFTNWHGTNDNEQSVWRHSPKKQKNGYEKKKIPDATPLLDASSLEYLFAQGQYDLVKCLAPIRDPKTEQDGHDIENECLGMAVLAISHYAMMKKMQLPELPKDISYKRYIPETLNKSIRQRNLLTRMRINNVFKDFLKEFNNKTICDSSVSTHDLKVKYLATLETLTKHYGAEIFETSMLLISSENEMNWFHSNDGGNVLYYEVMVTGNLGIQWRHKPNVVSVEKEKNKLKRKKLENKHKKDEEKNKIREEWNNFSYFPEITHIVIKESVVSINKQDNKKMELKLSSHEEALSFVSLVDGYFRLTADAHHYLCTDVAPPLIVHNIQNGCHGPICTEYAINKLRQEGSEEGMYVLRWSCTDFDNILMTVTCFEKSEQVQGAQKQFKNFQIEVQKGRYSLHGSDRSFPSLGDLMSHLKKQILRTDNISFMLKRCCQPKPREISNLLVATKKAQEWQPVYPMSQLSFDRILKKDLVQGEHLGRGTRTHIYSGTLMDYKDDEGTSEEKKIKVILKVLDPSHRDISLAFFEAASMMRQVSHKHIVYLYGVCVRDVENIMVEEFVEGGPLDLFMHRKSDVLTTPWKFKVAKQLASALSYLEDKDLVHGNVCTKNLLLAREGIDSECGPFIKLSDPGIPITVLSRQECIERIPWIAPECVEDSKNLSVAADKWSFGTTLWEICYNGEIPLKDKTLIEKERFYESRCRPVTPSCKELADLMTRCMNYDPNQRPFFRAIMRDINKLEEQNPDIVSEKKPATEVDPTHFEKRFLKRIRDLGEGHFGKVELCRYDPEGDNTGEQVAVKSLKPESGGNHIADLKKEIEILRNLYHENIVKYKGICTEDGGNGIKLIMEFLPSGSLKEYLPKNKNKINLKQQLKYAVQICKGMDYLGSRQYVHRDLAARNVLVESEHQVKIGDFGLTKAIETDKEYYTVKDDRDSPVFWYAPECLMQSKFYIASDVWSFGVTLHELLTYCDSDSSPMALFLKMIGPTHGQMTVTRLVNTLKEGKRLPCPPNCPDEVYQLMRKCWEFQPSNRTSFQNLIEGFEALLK
# JAK1/TYK2, sequence (P23458 whole entry): as the sequence (P23458 whole entry, the tested form may be a part) above
# JAK1/TYK2, sequence (P29597 whole entry): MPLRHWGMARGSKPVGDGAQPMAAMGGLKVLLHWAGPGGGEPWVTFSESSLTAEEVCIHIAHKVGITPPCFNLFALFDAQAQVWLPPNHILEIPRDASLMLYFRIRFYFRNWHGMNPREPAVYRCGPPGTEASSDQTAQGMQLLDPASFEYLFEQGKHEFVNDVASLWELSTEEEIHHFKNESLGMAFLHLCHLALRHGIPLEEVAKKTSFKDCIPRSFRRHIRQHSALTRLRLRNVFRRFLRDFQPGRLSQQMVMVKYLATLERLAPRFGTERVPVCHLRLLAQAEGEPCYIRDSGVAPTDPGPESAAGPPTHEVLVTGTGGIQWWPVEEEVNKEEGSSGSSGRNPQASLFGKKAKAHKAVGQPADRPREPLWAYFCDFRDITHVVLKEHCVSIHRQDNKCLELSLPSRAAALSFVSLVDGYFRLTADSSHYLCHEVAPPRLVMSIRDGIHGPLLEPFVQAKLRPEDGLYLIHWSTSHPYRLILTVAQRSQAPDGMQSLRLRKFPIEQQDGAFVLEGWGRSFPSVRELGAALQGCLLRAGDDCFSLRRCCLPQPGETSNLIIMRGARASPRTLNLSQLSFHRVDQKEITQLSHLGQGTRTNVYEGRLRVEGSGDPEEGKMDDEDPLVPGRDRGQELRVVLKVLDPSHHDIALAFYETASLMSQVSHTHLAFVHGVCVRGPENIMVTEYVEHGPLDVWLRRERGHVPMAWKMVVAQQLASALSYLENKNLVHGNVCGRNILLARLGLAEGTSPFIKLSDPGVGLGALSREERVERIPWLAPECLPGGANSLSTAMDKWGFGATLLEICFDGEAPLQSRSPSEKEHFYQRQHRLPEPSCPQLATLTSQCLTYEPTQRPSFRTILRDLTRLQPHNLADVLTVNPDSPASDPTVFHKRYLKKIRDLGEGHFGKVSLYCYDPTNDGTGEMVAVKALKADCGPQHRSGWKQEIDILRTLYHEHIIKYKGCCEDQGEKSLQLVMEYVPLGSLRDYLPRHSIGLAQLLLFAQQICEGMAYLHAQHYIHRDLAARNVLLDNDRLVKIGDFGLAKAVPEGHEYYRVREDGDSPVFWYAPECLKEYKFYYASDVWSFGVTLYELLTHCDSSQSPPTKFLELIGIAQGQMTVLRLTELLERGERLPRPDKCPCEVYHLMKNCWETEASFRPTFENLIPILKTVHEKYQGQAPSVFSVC
# T1 sequence (P23458 whole entry, one chain of several, the tested form may be a part): as the sequence (P23458 whole entry, the tested form may be a part) above
# Non-receptor tyrosine-protein kinase TYK2, sequence (P29597 whole entry, the tested form may be a part): as the sequence (P29597 whole entry) above
# Vascular endothelial growth factor receptor 2, sequence (P35968 whole entry): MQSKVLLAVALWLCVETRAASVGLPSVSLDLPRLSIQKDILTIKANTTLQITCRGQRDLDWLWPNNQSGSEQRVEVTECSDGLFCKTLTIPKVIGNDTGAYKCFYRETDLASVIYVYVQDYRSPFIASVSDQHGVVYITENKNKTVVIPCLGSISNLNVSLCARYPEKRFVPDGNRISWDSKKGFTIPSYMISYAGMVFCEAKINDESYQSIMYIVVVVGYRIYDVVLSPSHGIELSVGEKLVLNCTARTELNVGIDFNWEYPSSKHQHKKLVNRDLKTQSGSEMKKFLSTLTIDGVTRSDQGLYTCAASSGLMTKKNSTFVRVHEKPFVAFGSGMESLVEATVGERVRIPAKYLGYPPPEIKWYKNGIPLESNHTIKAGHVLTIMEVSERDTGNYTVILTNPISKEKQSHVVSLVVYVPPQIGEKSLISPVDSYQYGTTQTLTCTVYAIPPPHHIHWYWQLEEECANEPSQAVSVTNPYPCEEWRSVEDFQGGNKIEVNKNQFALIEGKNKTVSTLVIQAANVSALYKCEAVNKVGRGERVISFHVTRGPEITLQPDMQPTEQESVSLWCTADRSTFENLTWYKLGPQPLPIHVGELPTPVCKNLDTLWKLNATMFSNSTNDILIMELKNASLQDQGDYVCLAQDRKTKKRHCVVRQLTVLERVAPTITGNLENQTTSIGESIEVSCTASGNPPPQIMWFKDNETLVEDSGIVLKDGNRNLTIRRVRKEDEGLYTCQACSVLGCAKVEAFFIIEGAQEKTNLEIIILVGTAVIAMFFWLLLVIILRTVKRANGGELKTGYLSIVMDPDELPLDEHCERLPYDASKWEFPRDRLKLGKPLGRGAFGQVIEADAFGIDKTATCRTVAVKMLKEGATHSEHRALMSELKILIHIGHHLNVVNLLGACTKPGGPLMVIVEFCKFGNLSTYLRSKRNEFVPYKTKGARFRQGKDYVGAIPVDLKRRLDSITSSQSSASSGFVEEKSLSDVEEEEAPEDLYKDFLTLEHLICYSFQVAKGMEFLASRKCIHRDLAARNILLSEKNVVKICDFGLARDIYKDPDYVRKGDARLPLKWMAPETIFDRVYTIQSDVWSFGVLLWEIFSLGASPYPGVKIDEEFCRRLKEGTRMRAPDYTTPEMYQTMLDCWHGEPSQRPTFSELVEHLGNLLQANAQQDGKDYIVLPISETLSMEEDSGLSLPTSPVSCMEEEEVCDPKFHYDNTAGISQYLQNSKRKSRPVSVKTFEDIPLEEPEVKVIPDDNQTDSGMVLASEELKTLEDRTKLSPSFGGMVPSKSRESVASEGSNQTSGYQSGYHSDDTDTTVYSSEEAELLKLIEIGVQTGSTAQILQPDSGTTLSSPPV
Structure (SMILES),IC50 (JAK1/TYK2) [nM],IC50 (JAK3/JAK1 [1]) [nM],IC50 [2] [nM],IC50 (JAK3/JAK1 [3]) [nM],IC50 [4] [nM],IC50 [5] [nM],IC50 [6] [nM],pKa [7],IC50 [8] [nM],IC50 [9] [nM],IC50 [10] [nM],IC50 (Aurora kinase A) [nM],IC50 [11] [nM],IC50 [12] [nM],IC50 [13] [nM],IC50 [14] [nM],microsomal CLint (in vitro) [µL/min/mg]
CCOC(=O)Oc1cccc(Nc2cc(Nc3ccccc3Cl)c(C(N)=O)cn2)n1,71,> 30000,59,116,131,52,76,,,,,,,,,,
NC(=O)c1cnc(Nc2ccc(O)cn2)cc1Nc1ccccc1Cl,290,525,,218,14,20,20,,,,,,,,,,
C[C@H]1CN(C(=O)CC#N)[C@]12CCN(c1ncnc3[nH]ccc13)C2 [DELGOCITINIB],,,,,,,,,,,,,,,,,< 25

# Results, then the compound that gave them:
IC50 (JAK1/TYK2) [nM],IC50 (JAK3/JAK1 [1]) [nM],IC50 [2] [nM],IC50 (JAK3/JAK1 [3]) [nM],IC50 [4] [nM],IC50 [5] [nM],IC50 [6] [nM],pKa [7],IC50 [8] [nM],IC50 [9] [nM],IC50 [10] [nM],IC50 (Aurora kinase A) [nM],IC50 [11] [nM],IC50 [12] [nM],IC50 [13] [nM],IC50 [14] [nM],microsomal CLint (in vitro) [µL/min/mg],Structure (SMILES)
,,60,,,,,6.2,,,,,,,,,,Cc1cccc(Nc2cc(Nc3ccccc3Cl)c(C(N)=O)cn2)n1
> 10000,> 30000,2090,> 10000,3270,3150,4560,,> 2500,> 2500,> 2500,> 2500,> 2500,> 2500,> 2500,> 2500,,NC(=O)c1cnc(Nc2cccc(O)n2)cc1Nc1ccccc1Cl
271,2170,77,169,103,76,89,,,,,,,,,,,COc1cccc(Nc2cc(Nc3ccccc3Cl)c(C(N)=O)cn2)n1
